# Source: PubChem BioAssay AID1259407 (Chemical Carcinogenesis Research Information System (CCRIS), 2018)
# The source made the active and inactive calls. How the calls were made is not given here.
# System: CCRIS mutagenicity, Ames/micronucleus/aberration tests
# Assay: CCRIS mutagenicity studies
smiles,measurement,setting,value
C1COCCO1,mutagenic call,"End Point: IN VITRO CHROMOSOMAL ABERRATIONS, Test System: CHINESE HAMSTER OVARY CELLS, Metabolic Activation: NONE",inactive; negative
same,mutagenic call,"End Point: IN VITRO CHROMOSOMAL ABERRATIONS, Test System: CHINESE HAMSTER OVARY CELLS, Metabolic Activation: RAT, LIVER, S-9, AROCLOR 1254",inactive; negative
same,mutagenic call,"End Point: IN VIVO MICRONUCLEUS, Test System: BONE MARROW ERYTHROCYTES, Species: MOUSE, Strain/Sex: CD-1/MALE, Route: ORAL (GAVAGE)",active; positive
same,mutagenic call,"End Point: IN VIVO MICRONUCLEUS, Test System: HEPATOCYTES (BRDU-LABELING), Species: MOUSE, Strain/Sex: CD-1/MALE, Route: ORAL (GAVAGE)",active; positive
same,mutagenic call,"Test System: AMES SALMONELLA TYPHIMURIUM, Strain/Indicator: TA98, Metabolic Activation: HAMSTER LIVER S-9, PHENOBARBITAL AND BETA-NAPHTHOFLAVONE (10%), Method: PREINCUBATION",inactive; negative
same,mutagenic call,"Test System: AMES SALMONELLA TYPHIMURIUM, Strain/Indicator: TA98, Metabolic Activation: HAMSTER LIVER S-9, PHENOBARBITAL AND BETA-NAPHTHOFLAVONE (30%), Method: PREINCUBATION",inactive; negative
same,mutagenic call,"Test System: AMES SALMONELLA TYPHIMURIUM, Strain/Indicator: TA98, Metabolic Activation: NONE, Method: GAS EXPOSURE",inactive; negative
same,mutagenic call,"Test System: AMES SALMONELLA TYPHIMURIUM, Strain/Indicator: TA98, Metabolic Activation: NONE, Method: PREINCUBATION",inactive; negative
same,mutagenic call,"Test System: AMES SALMONELLA TYPHIMURIUM, Strain/Indicator: TA98, Metabolic Activation: NONE, Method: STANDARD PLATE",inactive; negative
same,mutagenic call,"Test System: AMES SALMONELLA TYPHIMURIUM, Strain/Indicator: TA98, Metabolic Activation: RAT LIVER S-9, PHENOBARBITAL AND 5,6-BENZOFLAVONE, Method: PREINCUBATION",inactive; negative
same,mutagenic call,"Test System: AMES SALMONELLA TYPHIMURIUM, Strain/Indicator: TA98, Metabolic Activation: RAT LIVER S-9, PHENOBARBITAL AND 5,6-BENZOFLAVONE, Method: STANDARD PLATE",inactive; negative
same,mutagenic call,"Test System: AMES SALMONELLA TYPHIMURIUM, Strain/Indicator: TA98, Metabolic Activation: RAT LIVER S-9, PHENOBARBITAL AND BETA-NAPHTHOFLAVONE (10%), Method: PREINCUBATION",inactive; negative
same,mutagenic call,"Test System: AMES SALMONELLA TYPHIMURIUM, Strain/Indicator: TA98, Metabolic Activation: RAT LIVER S-9, PHENOBARBITAL AND BETA-NAPHTHOFLAVONE (30%), Method: PREINCUBATION",inactive; negative
same,mutagenic call,"Test System: AMES SALMONELLA TYPHIMURIUM, Strain/Indicator: TA98, Metabolic Activation: RAT LIVER S-9, PHENOBARBITAL AND BETA-NAPHTHOFLAVONE, Method: GAS EXPOSURE",inactive; negative
same,mutagenic call,"Test System: AMES SALMONELLA TYPHIMURIUM, Strain/Indicator: TA100, Metabolic Activation: HAMSTER LIVER S-9, PHENOBARBITAL AND BETA-NAPHTHOFLAVONE (10%), Method: PREINCUBATION",inactive; negative
same,mutagenic call,"Test System: AMES SALMONELLA TYPHIMURIUM, Strain/Indicator: TA100, Metabolic Activation: HAMSTER LIVER S-9, PHENOBARBITAL AND BETA-NAPHTHOFLAVONE (30%), Method: PREINCUBATION",inactive; negative
same,mutagenic call,"Test System: AMES SALMONELLA TYPHIMURIUM, Strain/Indicator: TA100, Metabolic Activation: NONE, Method: GAS EXPOSURE",inactive; negative
same,mutagenic call,"Test System: AMES SALMONELLA TYPHIMURIUM, Strain/Indicator: TA100, Metabolic Activation: NONE, Method: PREINCUBATION",inactive; negative
same,mutagenic call,"Test System: AMES SALMONELLA TYPHIMURIUM, Strain/Indicator: TA100, Metabolic Activation: NONE, Method: STANDARD PLATE",inactive; negative
same,mutagenic call,"Test System: AMES SALMONELLA TYPHIMURIUM, Strain/Indicator: TA100, Metabolic Activation: RAT LIVER S-9, PHENOBARBITAL AND 5,6-BENZOFLAVONE, Method: PREINCUBATION",inactive; negative
same,mutagenic call,"Test System: AMES SALMONELLA TYPHIMURIUM, Strain/Indicator: TA100, Metabolic Activation: RAT LIVER S-9, PHENOBARBITAL AND 5,6-BENZOFLAVONE, Method: STANDARD PLATE",inactive; negative
same,mutagenic call,"Test System: AMES SALMONELLA TYPHIMURIUM, Strain/Indicator: TA100, Metabolic Activation: RAT LIVER S-9, PHENOBARBITAL AND BETA-NAPHTHOFLAVONE (10%), Method: PREINCUBATION",inactive; negative
same,mutagenic call,"Test System: AMES SALMONELLA TYPHIMURIUM, Strain/Indicator: TA100, Metabolic Activation: RAT LIVER S-9, PHENOBARBITAL AND BETA-NAPHTHOFLAVONE (30%), Method: PREINCUBATION",inactive; negative
same,mutagenic call,"Test System: AMES SALMONELLA TYPHIMURIUM, Strain/Indicator: TA100, Metabolic Activation: RAT LIVER S-9, PHENOBARBITAL AND BETA-NAPHTHOFLAVONE, Method: GAS EXPOSURE",inactive; negative
same,mutagenic call,"Test System: AMES SALMONELLA TYPHIMURIUM, Strain/Indicator: TA1535, Metabolic Activation: HAMSTER LIVER S-9, PHENOBARBITAL AND BETA-NAPHTHOFLAVONE (10%), Method: PREINCUBATION",inactive; negative
same,mutagenic call,"Test System: AMES SALMONELLA TYPHIMURIUM, Strain/Indicator: TA1535, Metabolic Activation: HAMSTER LIVER S-9, PHENOBARBITAL AND BETA-NAPHTHOFLAVONE (30%), Method: PREINCUBATION",inactive; negative
same,mutagenic call,"Test System: AMES SALMONELLA TYPHIMURIUM, Strain/Indicator: TA1535, Metabolic Activation: NONE, Method: GAS EXPOSURE",inactive; negative
same,mutagenic call,"Test System: AMES SALMONELLA TYPHIMURIUM, Strain/Indicator: TA1535, Metabolic Activation: NONE, Method: PREINCUBATION",inactive; negative
same,mutagenic call,"Test System: AMES SALMONELLA TYPHIMURIUM, Strain/Indicator: TA1535, Metabolic Activation: NONE, Method: STANDARD PLATE",inactive; negative
same,mutagenic call,"Test System: AMES SALMONELLA TYPHIMURIUM, Strain/Indicator: TA1535, Metabolic Activation: RAT LIVER S-9, PHENOBARBITAL AND 5,6-BENZOFLAVONE, Method: PREINCUBATION",inactive; negative
same,mutagenic call,"Test System: AMES SALMONELLA TYPHIMURIUM, Strain/Indicator: TA1535, Metabolic Activation: RAT LIVER S-9, PHENOBARBITAL AND 5,6-BENZOFLAVONE, Method: STANDARD PLATE",inactive; negative
same,mutagenic call,"Test System: AMES SALMONELLA TYPHIMURIUM, Strain/Indicator: TA1535, Metabolic Activation: RAT LIVER S-9, PHENOBARBITAL AND BETA-NAPHTHOFLAVONE (10%), Method: PREINCUBATION",inactive; negative
